Measured values published in BindingDB's records for doi:10.1021/ml5002954 (Uppsala University, 2014).

Experiments:
[1] = biological target: Substance P 1-7 binding site; assay: Binding affinity to SP1-7 binding site
[2] = biological target: Substance P 1-7 binding site; assay: Displacement of [3H]-SP1-7 from SP1-7 binding site by scintillation counting analysis

Row | Ki [1] | IC50 [2] | Ki [2] | Structure (SMILES)
1 | 5.2 nM | 6.2 nM | 5.2 nM | NC(=O)[C@H](Cc1ccccc1)NC(=O)OCc1ccccc1
2 | – | 17 nM | – | N#CNC(=O)[C@H](Cc1ccccc1)NC(=O)OCc1ccccc1
3 | – | 6.5 nM | – | O=C(N[C@@H](Cc1ccccc1)C(=O)NNC(=O)c1ccccc1)OCc1ccccc1
4 | – | 9 nM | – | O=C(N[C@@H](Cc1ccccc1)c1nnc(-c2ccccc2)o1)OCc1ccccc1
